According to US20220323376A1, “METHODS AND COMPOSITIONS FOR SENSITIZING CANCER CELLS TO DRUG-INDUCED APOPTOSIS” (New York University, priority 2019, published 2022):
One block for each compound: values may come before it.

Tests used:
AML cells = assay: Cell death by Annexin V flow cytometry; type: cell-based, human
Experimental: Cell Cycle and Apoptosis. To assess cell cycle, we performed the 5-ethynyl-2′-deoxyuridine (EdU) incorporation assay using the Click-iT Plus EdU Alexa Fluor 647 kit as described in manufacturer's protocol (Life Technologies). Apoptosis analysis was determined using APC Annexin V (BD Bioscience) and 4′,6-Diamidino-2-Phenylindole, Dihydrochloride (DAPI) for DNA content. Both EdU and Annexin V stained cells were analyzed by flow cytometry and FlowJo software.

[1] = tested on: mouse AML cell line RN2 (MLL-AF9; Kras)
Experimental: ZIP model was used to calculate the delta-score of synergisms of the combination treatments. […] ZIP model was used to calculate the delta-score of synergisms of the combination treatments. […] ZIP model was used to calculate the delta-score of synergisms of the combination treatments.
Drug Treatment and IC50 Measurements. Cells were plated in 96-well plates and exposed to Venetoclax at concentrations ranging from 0.4 nM to 300 nM (for MOLM-13 and MV4-11), 150 nM to 10 μM (for Venetoclax-resistant cell lines and THP-1) with a minimum of three technical replicates per concentration per cell line. Cell viability was measured with the CellTiter-Glo reagent (Promega) according to manufacturer's instructions. Absolute viability values were converted to percentage viability versus DMSO control treatment, and then non-linear fit of log(inhibitor) versus response (three parameters) was performed in GraphPad Prism v7.0 to obtain the IC50 values. For Venetoclax and Azacitidine combined treatment, two drugs were mixed at the fixed ratio (Ven:Aza=1:4) before diluting to certain concentrations.

[2] = tested on: human AML cell lines (MOLM-13, MV4-11, THP-1, KASUMI-1); assay: Venetoclax/drug IC50 by CellTiter-Glo in sgRNA-transduced AML cell lines; type: cell-based; conditions: for Synergistic effect of CLPB ablation with the drug: MOLM-13 and MV4-11 with sgCLPB or sgRosa, 48 hrs
Description: (§1) Drug Treatment and IC50 Measurements.

[3] = tested on: AML cells (THP-1, MOLM-13); assay: Western blotting of AML cell lysates after drug treatment; type: cell-based, human; conditions: for CLPB protein levels in cells surviving drug treatment: MOLM-13, Venetoclax (IC50) 10 days, Idarubicin 10 nM 2 days
Experimental: Biochemistry. Protein lysis was performed with RIPA buffer (Thermo Fisher Scientific) in presence of proteases inhibitor cocktail (PIC, Sigma) for 30 min at 4° C. After centrifugation at maximal speed for 20 min, supernatants were collected and protein concentration was determined using Bradford reagent (Bio-Rad).
Protein lysates (25-30 μg) were loaded onto 4%-12% Bis-Tris or 3%-8% Tris-acetate polyacrylamide gels (Thermo Fisher Scientific), transferred onto PVDF membranes (Millipore) and probed using the following antibodies: anti-CLPB polyclonal (1:2000, Proteintech, Cat #15743-1-AP), anti-TFAM (1:500, Santa Cruz, Cat #sc-376672), anti-OPA1 monoclonal (1:1000, BD Biosciences, Cat #612606), anti-SDHA monoclonal (1:2500, Abcam, Cat #ab14715), anti-HAX1 polyclonal (1:1000, Proteintech, Cat #11266-1-AP), anti-cytochrome c monoclonal (1:4000, Thermo Fisher Scientific, Cat #BDB556433), anti-caspase-3 monoclonal (1:1000, Proteintech, Cat #66470-2-Ig), anti-cleaved caspase-3 polyclonal (1:1000, Cell Signaling, Cat #9661S), anti-GRP75 monoclonal (1:1000, Santa Cruz, Cat #sc-133137), anti-TOM20 monoclonal (1:500, Santa Cruz, Cat #sc-17764), anti-p53 monoclonal (1:1000, Active Motif North America, Cat #39553), anti-BCL-2 polyclonal (1:200, R&D Systems, Cat #AF810-SP), anti-MCL1 polyclonal (1:1000, Proteintech, Cat #16225-1-AP), anti-BCL-XL monoclonal (1:500, R&D Systems, Cat #MAB894SP), anti-NOXA monoclonal (1:500, Abcam, Cat #ab13654), anti-GAPDH polyclonal (1:10000, Proteintech, Cat #10494-1-AP), anti-LAMIN A polyclonal (1:1000, Santa Cruz, Cat #sc-6214) and anti-ACTIN (1:10000, Millipore, Cat #MAB1501) antibodies. Isotype matched secondary antibodies were conjugated to horseradish peroxidase (GE Healthcare) and chemiluminescence was detected with ECL (Life Technologies) using films. Band densitometric analysis was performed using ImageJ (National Institutes of Health).

[4] = tested on: human AML cell lines (MOLM-13, KASUMI-1); assay: IC50 curves of AMG176 in combination with Mdivi-1; type: cell-based; conditions: AML cells
[5] = tested on: Venetoclax-resistant (VR) MOLM-13 and MV4-11 cells; assay: Venetoclax IC50 in parental versus Venetoclax-resistant (VR) AML cell lines; type: cell-based, human
Experimental: For the generation of the Venetoclax-resistant cell lines, MOLM-13 and MV4-11 were cultured in media containing increasing doses of Venetoclax (from 5 nM to 1000 nM) for more than 8 weeks to achieve complete resistance to the drug.
as §1

[6] = tested on: AML cells (THP-1 and MOLM-13); assay: Electron microscopy-based morphometric analysis of mitochondria; type: cell-based, human; conditions: THP-1 4 μM, MOLM-13 17 nM, 16 hrs
Experimental: Transmission Electron Microscopy. Cultured cells were fixed in 0.1M sodium cacodylate buffer (pH 7.4) containing 2.5% glutaraldehyde and 2% paraformaldehyde for 2 hrs and post-fixed with 1% osmium tetroxide and 1% potassium ferrocyanide for one hour at 4° C. Then block was stained in 0.25% aqueous uranyl acetate, processed in a standard manner and embedded in EMbed 812 (Electron Microscopy Sciences, Hatfield, Pa.). Ultrathin sections (60 nm) were cut, mounted on copper grids and stained with uranyl acetate and lead citrate. Stained grids were examined under Philips CM-12 electron microscope and photographed with a Gatan (4k×2.7k) digital camera. For morphometric analysis, maximal cristae width was measured using Image J (NIH) as shown in FIG. 4A in at least 50 randomly selected mitochondria from a minimum of 15 cells/experiment.

[7] = tested on: AML cells (THP-1, MOLM-13, MV4-11); assay: Mitochondrial membrane potential by TMRM staining; type: cell-based, human; conditions: 16 hrs
Experimental: Mitochondrial Membrane Potential. Mitochondrial membrane potential was monitored cytofluorimetrically using tetramethylrhodamine methyl ester (TMRM). Cells were loaded with 10 nM TMRM in presence of 2 μM Cyclosporin H in Hank's Balanced Salt Solution (HBSS) supplemented with 10 mM HEPES, 30 min at 37° C. When indicated, the experiments were performed in cells pre-treated with Venetoclax for 16 hours at the indicated concentrations.

[8] = tested on: MOLM-13-Par or MOLM-13-VR xenografts; assay: MOLM-13 parental and VR xenografts in NSG mice, Venetoclax by oral gavage; type: in vivo, NOD SCID gamma (NSG) mice
Experimental: Animal experiments. For in vivo experiments, Cas9 and luciferase-expressing parental and Venetoclax-resistant MOLM-13 cells were transduced with sgRosa or sgCLPB #1 constructs. At day 2 post-transduction, sgRNA positive cells (GFP) were sorted by FACS. 0.5 million sgRNA-expressing leukemia cells were intravenously injected into recipient NSG mice. For experiments that required drug administration, recipient mice were treated with vehicle or Venetoclax (100 mg/kg, Selleckchem) daily by oral gavage from day 6 to day 20. Venetoclax was prepared in 10% ethanol, 30% polyethyleneglycol-400 (Sigma), and 60% phosal 50 propylene glycol (Lipoid). Whole-body bioluminescent imaging was performed at indicated time points by intraperitoneally injection of Luciferin (Goldbio) at a 50 mg/kg concentration and imaging was performed after 5 mins using an IVIS imager. Bioluminescent signals (radiance) were quantified using Living Image software with standard regions of interests (ROI) rectangles. Peripheral blood of recipient NSG mice was collected at indicated time points after transplantation, and sgRNA positive cells (GFP+) were analyzed by flow cytometry. All animal experiments were performed in accordance with protocols approved by the New York University Institutional Animal Care and Use Committee (IACUC, ID: IA16-00008_TR1).
Animals. […]

AML patients = conditions: cited from earlier work

Structure (SMILES): CO[C@H]1/C=C/C[C@H](C)[C@@H](C)S(=O)(=O)NC(=O)c2ccc3c(c2)N(C[C@@H]2CC[C@H]21)C[C@@]1(CCCc2cc(Cl)ccc21)CO3 [AMG176, (3′R,4S,6′R,7′S,8′E,11′S,12′R)-7-chloro-7′-methoxy-11′,12′-dimethyl-13′,13′-dioxospiro[2,3-dihydro-1H-naphthalene-4,22′-20-oxa-13λ6-thia-1,14-diazatetracyclo[14.7.2.03,6.019,24]pentacosa-8,16(25),17,19(24)-tetraene]-15′-one]
- Apoptosis induced by AMG176 upon CLPB depletion (AML cells; MOLM-13 and KASUMI-1 with sgCLPB, 22 hrs): enhances the apoptosis

- IC50 of chloroquine upon addition of Venetoclax plus Azacitidine [1]: vice versa
Structure (SMILES): CCN(CC)CCCC(C)Nc1ccnc2cc(Cl)ccc12 (stereo not drawn) [Chloroquine, N′-(7-chloroquinolin-4-yl)-N,N-diethylpentane-1,4-diamine]

Structure (SMILES): Nc1ccn([C@@H]2O[C@H](CO)[C@@H](O)[C@@H]2O)c(=O)n1 [Cytarabine, 4-amino-1-[(2R,3S,4S,5R)-3,4-dihydroxy-5-(hydroxymethyl)oxolan-2-yl]pyrimidin-2-one]
- Synergistic effect of CLPB ablation with the drug [2]: no synergistic effect

Structure (SMILES): CC(=O)[C@]1(O)Cc2c(O)c3c(c(O)c2[C@@H](O[C@H]2C[C@H](N)[C@H](O)[C@H](C)O2)C1)C(=O)c1ccccc1C3=O [Idarubicin, (7S,9S)-9-acetyl-7-{[(2R,4S,5S,6S)-4-amino-5-hydroxy-6-methyloxan-2-yl]oxy}-6,9,11-trihydroxy-5,7,8,9,10,12-hexahydrotetracene-5,12-dione]
- Synergistic effect of CLPB ablation with the drug [2]: no synergistic effect
- CLPB protein levels in cells surviving drug treatment [3]: did not lead to increase of CLPB protein levels

Structure (SMILES): Cc1sc2c(c1C)C(c1ccc(Cl)cc1)=N[C@@H](CC(=O)OC(C)(C)C)c1nnc(C)n1-2 [JQ-1]
- Synergistic effect of CLPB ablation with the drug [2]: no synergistic effect

Structure (SMILES): COc1cc(-n2c(=S)[nH]c3ccccc3c2=O)c(Cl)cc1Cl [Mdivi-1, 3-(2,4-dichloro-5-methoxyphenyl)-2-sulfanylidene-1H-quinazolin-4-one]
- Combination effect with AMG176 [4]: synergistic effects with AMG176

- Venetoclax IC50 upon CLPB depletion ([2]; CLPB sgRNAs versus sgRosa, all the cell lines tested, 48 hours): significantly reduced the IC50
- Venetoclax half maximal inhibitory concentration (IC50) upon deletion of BAX and PMAIP1 ([2]; KASUMI-1 and MOLM-13 cells, 48 hours, Cell-TiterGlo): significant increase
Structure (SMILES): CC1(C)CCC(CN2CCN(c3ccc(C(=O)NS(=O)(=O)c4ccc(NCC5CCOCC5)c([N+](=O)[O-])c4)c(Oc4cnc5[nH]ccc5c4)c3)CC2)=C(c2ccc(Cl)cc2)C1 [Venetoclax, 4-[4-[[2-(4-chlorophenyl)-4,4-dimethylcyclohexen-1-yl]methyl]piperazin-1-yl]-N-[3-nitro-4-(oxan-4-ylmethylamino)phenyl]sulfonyl-2-(1H-pyrrolo[2,3-b]pyridin-5-yloxy)benzamide]
- Sensitivity of p53-deficient MOLM-13 to Venetoclax upon CLPB depletion ([2]; p53-KO clones B10 and B11, sgCLPB #1, 48 hours): fully re-sensitize p53-deficient MOLM-13 to Venetoclax treatment
- Venetoclax IC50 with TP53 sgRNAs ([2]; p53 wild-type MOLM-13 and p53-mutant KASUMI-1, 48 hours): increased the Venetoclax IC50 in p53 wild-type MOLM-13 but not p53-mutant KASUMI-1
- Increase of Venetoclax concentration required for the 50% cell death in VR cell lines in respect to the original clones (Par.) ([5]; MOLM-13 and MV4-11 VR versus parental): more than 100 fold
- Sensitivity of VR cells to Venetoclax upon ablation of CLPB ([5]; VR MOLM-13 and MV4-11 with CLPB sgRNAs): significantly re-sensitized VR cells
- Mitochondrial ultrastructure after treatment [6]: abnormal ultrastructure after Venetoclax treatment, characterized by a lower number of cristae and increase of the cristae lumen width
- Mitochondrial depolarization in CLPB-knockout cells (TMRM) ([7]; AML cells lacking CLPB versus control): more prone to Venetoclax-induced mitochondrial depolarization
- Mitochondrial membrane potential (TMRM) ([7]; THP-1 4 μM, MOLM-13 35 nM): depolarization of mitochondria
- Caspase-3 activation in AML cells lacking CLPB relative to wild-type ([3]; MOLM-13 35 nM, THP-1 4 μM, 16 hrs): prevalent caspase-3 activation
- CLPB protein levels in cells surviving drug treatment [3]: significant increase in the CLPB protein
- Caspase-3 cleavage ([3]; THP-1, 4 μM, 16 hrs): caspase activation
- OPA1 long and short forms (western blot) ([3]; THP-1, 4 μM, 16 hrs): decrease in the long (L-OPA1) forms and accumulation of short (S-OPA1) forms of OPA1
- Cell death by Annexin-V staining (AML cells; AML cells, 16 hrs): cell death
- Cell death induced by Venetoclax upon depletion of OPA1 (AML cells; THP-1, 4 μM, 16 hrs): enhances cell death
- Annexin-V cell death in cells transduced with sgRNAs targeting CLPB versus negative controls (AML cells; puromycin-selected AML cells, 16 hrs): hypersensitivity of these cells to Venetoclax
- Synergy of CLPB deletion with Venetoclax in vivo (bioluminescence, circulating GFP+ leukemic cells) ([8]; 100 mg/kg daily oral gavage day 6 to day 20): synergizes efficiently with Venetoclax in both Venetoclax-sensitive and resistant xenografts
- CLPB and OPA1 protein levels in wild-type tumors at late stages versus vehicle-treated mice ([8]; sorted GFP+ sgRosa leukemia cells from bone marrow): significantly elevated CLPB and OPA1 protein levels
- Patients that do not respond upfront (AML patients; Venetoclax with hypomethylating agents or low dose cytarabine): approximately 30%
- Response rates, single-agent Venetoclax in AML (AML patients; monotherapy): modest and rather short-lived
